Patent US7348344B2, “Polysubstituted 1,1-pyridyloxycyclopropanamine compounds” (Les Laboratoires Servier, priority 2005, dated 2008)

Assays:
Wistar rat = assay: Social recognition in the Wistar rat; format: in vivo; conditions: 10 mg/kg IP, second encounter after 2 hours
Source text: Initially described in 1982 (J. Comp. Physiol., 1982, 96, 1000-1006), the social recognition test has subsequently been proposed by various authors (Psychopharmacology, 1987, 91, 363-368; Psychopharmacology, 1989, 97, 262-268) for studying the mnemocognitive effects of new compounds. The test is based on the natural expression of the olfactory memory of the rat and its natural tendency to forget and allows evaluation of memorisation, by recognition of a young congeneric animal, by an adult rat. A young rat (21 days), taken at random, is placed for 5 minutes in the cage housing an adult rat. With the aid of a video device, the experimenter observes the social recognition behaviour of the adult rat and measures its overall duration. The young rat is then removed from the adult rat's cage and is placed in its own cage until the second introduction. The adult rat is given the compound under test by the intraperitoneal route and, after 2 hours, is again brought into the presence (5 minutes) of the young rat. The social recognition behaviour is then observed again and its duration measured. The assessment criterion is the difference (T2−T1), expressed in seconds, between the “recognition” times of the 2 encounters.

[1] = biological target: T1, type α4β2 central nicotinic receptors (Rattus norvegicus, UniProt P09483+P12390); assay: Displacement of binding of [3H]-cytisine on type α4β2 nicotinic receptors of rat brain; conditions: rat brain membranes
T1 construct: from tissue; host or cells: rat brain membranes
Experimental: This study, carried out according to the technique described in Molec. Pharmacol., 1990, 39; 9-12, is aimed at determining the affinity of compounds of the present invention for type α4β2 central nicotinic receptors.
Membranes (250 μg/ml) of rat brain are incubated (2 hours, 20° C.) in the presence of a series of concentrations (0.01-10 μM) of each compound of the present invention (diluted starting from a 10 mM stock solution in DMSO) and [^3H]-cytisine (S.A.: 1184 GBq/mmol: 2 nM) in phosphate buffer (NaH2PO4 20 mM, pH 7.4); final volume: 250 μl. The non-specific binding is determined by incubating membranes in the presence of 10 μM of (−)nicotine. The affinity of the compounds of the present invention for type α4β2 central nicotinic receptors is characterised by determination of the Ki.

[2] = test system: release of acetylcholine in the prefrontal cortex; assay: In vivo measurement of the release of acetylcholine by intra-cortical microdialysis in the conscious Wistar rat; parameters: dose or concentration left out as unconfirmed; conditions: one hour after administration
Experimental: The systemic administration of nicotine and nicotinic agonists causes an increase, in vivo, of acetylcholine in various regions of the brain (Neurochem. Res., 1996, 21, 1181-1186; Eur. J. Pharmacol., 1998, 351, 181-188; Br. J. Pharmacol., 1999, 127, 1486-1494). A microdialysis probe is implanted in the median prefrontal cortex of male Wistar rats. Six or seven days after they have been implanted, the probes are perfused with Ringer's solution (NaCl 147 mM, KCl 2.7 mM, CaCl2 1.2 mM, MgCl2 1 mM, neostigmine 20 nM) at a flow rate of 1 μl/min, the animal being free to move. After 2 hours in the animal quarters, the product under test is administered by the intraperitoneal route. A group of control animals receives the solvent used for the product. The dialysates (30 μl) are then collected every 30 minutes for 4 hours in order to measure the cortical extra-synaptic concentrations of acetylcholine by means of HPLC with amperometric detection. The results are expressed in pg of acetylcholine/dialysate, and inter-group comparisons are carried out by means of analysis of variance using 2 factors (treatment×time), with measurements being repeated over time.

NMRI mouse = assay: Abdominal contractions induced by phenyl-p-benzoquinone (PBQ) in the NMRI mouse; format: in vivo; conditions: 10 mg/kg IP
Experimental: Intraperitoneal administration of an alcoholic solution of PBQ causes abdominal cramps in the mouse (Proc. Soc. Exp. Biol., 1957, 95, 729-731). The cramps are characterised by repeated contractions of the abdominal musculature, accompanied by extension of the hind limbs. Most analgesics antagonise these abdominal cramps (Brit. J. Pharmacol. Chem., 1968, 32, 295-310). At t=0 min., the animals are weighed and the compound being studied is administered by the IP route. A group of control animals is given the solvent used for the compound. At t=30 min., an alcoholic solution of PBQ (0.2%) is administered by the IP route in a volume of 0.25 ml/mouse. Immediately after administration of the PBQ, the animals are placed in cylinders of plexiglass (L=19.5 cm; I.D.=5 cm). From t=35 min. to t=45 min., the animals' reaction is observed and the experimenter notes the total number of abdominal cramps per animal. The results are expressed as the percentage inhibition of the number of abdominal cramps measured in the control animals, at the active dose of the compound studied.

T1 sequence (P09483 31-630): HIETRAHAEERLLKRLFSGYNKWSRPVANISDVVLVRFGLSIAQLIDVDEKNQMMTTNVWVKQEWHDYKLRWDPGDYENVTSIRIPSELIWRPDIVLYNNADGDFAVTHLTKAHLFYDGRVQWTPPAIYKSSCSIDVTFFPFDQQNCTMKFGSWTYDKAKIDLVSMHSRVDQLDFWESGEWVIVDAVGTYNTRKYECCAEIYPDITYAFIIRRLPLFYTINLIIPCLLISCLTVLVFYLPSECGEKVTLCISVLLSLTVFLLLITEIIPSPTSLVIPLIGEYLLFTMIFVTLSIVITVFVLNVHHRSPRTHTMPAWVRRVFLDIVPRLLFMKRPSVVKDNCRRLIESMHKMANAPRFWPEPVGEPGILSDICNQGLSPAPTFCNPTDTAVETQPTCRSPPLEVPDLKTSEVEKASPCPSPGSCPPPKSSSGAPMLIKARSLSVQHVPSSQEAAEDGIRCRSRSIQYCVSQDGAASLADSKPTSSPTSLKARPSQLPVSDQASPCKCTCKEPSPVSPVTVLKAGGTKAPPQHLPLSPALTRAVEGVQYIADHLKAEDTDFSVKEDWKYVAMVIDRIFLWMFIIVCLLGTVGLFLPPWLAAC
T1 sequence (P12390 25-500): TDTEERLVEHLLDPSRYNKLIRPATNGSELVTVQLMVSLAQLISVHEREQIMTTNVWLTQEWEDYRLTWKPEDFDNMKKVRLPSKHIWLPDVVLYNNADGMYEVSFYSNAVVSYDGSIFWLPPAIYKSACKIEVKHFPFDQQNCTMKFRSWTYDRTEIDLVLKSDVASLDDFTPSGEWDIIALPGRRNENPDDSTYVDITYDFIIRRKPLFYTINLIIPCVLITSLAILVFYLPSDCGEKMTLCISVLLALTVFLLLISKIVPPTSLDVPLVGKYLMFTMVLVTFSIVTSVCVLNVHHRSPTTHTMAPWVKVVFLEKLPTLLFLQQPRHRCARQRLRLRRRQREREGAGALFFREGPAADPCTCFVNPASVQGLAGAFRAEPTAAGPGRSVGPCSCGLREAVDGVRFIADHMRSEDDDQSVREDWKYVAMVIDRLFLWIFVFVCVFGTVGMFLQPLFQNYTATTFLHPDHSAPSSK

Compound	melting point	further results
C[C@H]1C[C@@]1(N)COc1ccc(Cl)nc1.Cl (single isomer, unassigned)	183 to 186 °C	
C[C@H]1C[C@]1(COc1ccc(Cl)nc1)N(C)C.Cl (single isomer, unassigned)	136 to 138 °C	
C[C@H]1C[C@@]1(N)COc1cccnc1.Cl.Cl (single isomer, unassigned)	< 75 °C	
CN[C@@]1(COc2ccc(Cl)nc2)C[C@@H]1C.Cl (single isomer, unassigned) [11]	185 to 190 °C	
CN[C@@]1(COc2ccc(Cl)nc2)C[C@@H]1C.Cl (single isomer, unassigned) [12]	188 to 192 °C	
CN[C@@]1(COc2cccnc2)C[C@H]1C.Cl.Cl (single isomer, unassigned) [20]	69 to 72 °C	
CN[C@@]1(COc2cccnc2)C[C@H]1C.Cl.Cl (single isomer, unassigned) [21]	71 to 74 °C	
CNC1(COc2cccnc2)CC1(C)C.O=C(O)/C=C/C(=O)O.O=C(O)/C=C/C(=O)O (single isomer, unassigned) [26]	124 to 127 °C	
CN[C@@]1(COc2cccnc2)C[C@@H]1C.Cl.Cl (single isomer, unassigned) [Example 2, (1S,2S)- or (1R,2R)-(−)-N,2-dimethyl-1-[(3-pyridinyloxy)methyl]cyclopropanamine Dihydrochloride]	174 to 176 °C	difference (T2−T1) between recognition times (Wistar rat): 38 s; Ki [1]: 69 nM; increase in the release of acetylcholine in the prefrontal cortex [2]: +86%
C[C@H]1C[C@@]1(N)COc1ccc(Cl)nc1.Cl (single isomer, unassigned) [Example 15, (1S,2S)- or (1R,2R)-(+)-1-{[(6-chloro-3-pyridinyl)oxy]methyl}-2-methylcyclopropanamine Hydrochloride]		reduction of the number of abdominal cramps caused by PBQ (NMRI mouse): −69%
CNC1(COc2cccnc2)CC1(C)C.O=C(O)/C=C/C(=O)O.O=C(O)/C=C/C(=O)O (single isomer, unassigned) [Example 27]	115 to 118 °C	
